Experimental data from PMC6753678, “Fueling Open Innovation for Malaria Transmission-Blocking Drugs: Hundreds of Molecules Targeting Early Parasite Mosquito Stages” (Frontiers in Microbiology, 2019).

Key:
HepG2 cells = test: HepG2 cytotoxicity assay; settings: unified HepG2 cytotoxicity across the three screens
Outline: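 Cells are plated at 2,500 per well on compound-treated plates in MEM containing 10% fetal bovine serum and 1% NEAA, then incubated 48 h at 37°C.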

[1] = system: P. falciparum female gametocytes; set-up: method as in Miguel-Blanco et al 2017; settings: ref Miguel-Blanco et al 2017; read-out: Pf FGAA IC50; cited from earlier work
[2] = system: P. falciparum female gametocytes; test: P. falciparum female gametogenesis assay (Pf FGAA); settings: 1: YES; 0: NO; >10-fold selectivity over cytotox

O=C(NC1CCN(CCN2CCC(c3c[nH]c4ccccc34)CC2)CC1)c1ccc(-c2ccc(C(F)(F)F)cc2)cc1 [TCMDC-138845]
Unified cytotox (HepG2 cells): 4.68 µM
IC50 [1]: 1.8 µM
Is compound selective in assay? Pf FGAA active? [2]: 0 (0: NO)

CC(C)Cn1cc(C2CCN(CCN3CCC(CNC(=O)c4ccc(-c5ccc(C#N)cc5)cc4)CC3)CC2)c2ccccc21 [TCMDC-138849]
Unified cytotox (HepG2 cells): 4.79 µM
IC50 [1]: 1.03 µM
Is compound selective in assay? Pf FGAA active? [2]: 0 (0: NO)

CC(C)Cn1cc(C2CCN(CCN3CCC(CNC(=O)c4ccc(-c5ccc(C(F)(F)F)cc5)cc4)CC3)CC2)c2ccccc21 [TCMDC-138852]
Unified cytotox (HepG2 cells): 4.80 µM
IC50 [1]: 0.88 µM
Is compound selective in assay? Pf FGAA active? [2]: 0 (0: NO)

O=C(NCC1CCN(CCN2CCC(c3cn(CCO)c4ccccc34)CC2)CC1)c1ccc(-c2ccc(C(F)(F)F)cc2)cc1 [TCMDC-138856]
Unified cytotox (HepG2 cells): 2.69 µM
IC50 [1]: 1.47 µM
Is compound selective in assay? Pf FGAA active? [2]: 0 (0: NO)

O=C(O)C(F)(F)F.O=S(=O)(c1ccccc1)n1ccc2cc(Nc3ncnc4cc(C#C[C@H]5CCCN5)sc34)ccc21 [TCMDC-138913]
Unified cytotox (HepG2 cells): 5.50 µM
IC50 [1]: 1.17 µM
Is compound selective in assay? Pf FGAA active? [2]: 0 (0: NO)

COc1cc2nc(-c3ccc(Br)cc3)cc(N)c2cc1OC [TCMDC-138933]
Unified cytotox (HepG2 cells): 4.95 µM
IC50 [1]: 0.76 µM
Is compound selective in assay? Pf FGAA active? [2]: 0 (0: NO)

CCN1CCC2(c3cccc(OC)c3)Cc3nc4ccccc4c(-c4ccccc4)c3CC2C1 (stereo not drawn) [TCMDC-138968]
Unified cytotox (HepG2 cells): 33.25 µM
IC50 [1]: 1.43 µM
Is compound selective in assay? Pf FGAA active? [2]: 1 (1: YES)

COc1ccc(NC(=O)c2ccc(OCCCCCCCOc3ccc(C(=O)Nc4ccc(OC)c(N5CCN(C)CC5)c4)cc3)cc2)cc1N1CCN(C)CC1.O=C(O)C(=O)O [TCMDC-139007]
Unified cytotox (HepG2 cells): 4.43 µM
IC50 [1]: 1.41 µM
Is compound selective in assay? Pf FGAA active? [2]: 0 (0: NO)

COc1ccc(NC(=O)c2cccc(Br)c2)cc1N1CCN(CCCCCCCN2CCN(c3cc(NC(=O)c4cccc(Br)c4)ccc3OC)CC2)CC1.Cl [TCMDC-139020]
Unified cytotox (HepG2 cells): 6.03 µM
IC50 [1]: 1.06 µM
Is compound selective in assay? Pf FGAA active? [2]: 0 (0: NO)

Oc1ccc2[nH]cc(C3CCN(CCCNCc4ccc(-c5ccccc5)cc4)CC3)c2c1 [TCMDC-139047]
Unified cytotox (HepG2 cells): 5.62 µM
IC50 [1]: 1.44 µM
Is compound selective in assay? Pf FGAA active? [2]: 0 (0: NO)

Cl.Nc1c2c(nc3ccc(NC(=O)CCCCCCc4ccccc4)cc13)CCCC2 [TCMDC-139056]
Unified cytotox (HepG2 cells): 5.42 µM
IC50 [1]: 2.38 µM
Is compound selective in assay? Pf FGAA active? [2]: 0 (0: NO)

COC(=O)c1ccc(-c2ccc(-c3cccnc3)cc2C)cc1 [TCMDC-139074]
Unified cytotox (HepG2 cells): 3.63 µM
IC50 [1]: 0.59 µM
Is compound selective in assay? Pf FGAA active? [2]: 0 (0: NO)

c1ccc(C23N=C(Nc4nc5ccccc5[nH]4)NC2(c2ccccc2)NC(Nc2nc4ccccc4[nH]2)=N3)cc1 (stereo not drawn) [TCMDC-139082]
Unified cytotox (HepG2 cells): 58.90 µM
IC50 [1]: 0.14 µM
Is compound selective in assay? Pf FGAA active? [2]: 1 (1: YES)

COc1cccc(C23N=C(Nc4nc5ccccc5[nH]4)NC2(c2cccc(OC)c2)NC(Nc2nc4ccccc4[nH]2)=N3)c1 (stereo not drawn) [TCMDC-139087]
Unified cytotox (HepG2 cells): 40.74 µM
IC50 [1]: 0.09 µM
Is compound selective in assay? Pf FGAA active? [2]: 1 (1: YES)

Clc1cccc(C23N=C(Nc4nc5ccccc5[nH]4)NC2(c2ccccc2)NC(Nc2nc4ccccc4[nH]2)=N3)c1 (stereo not drawn) [TCMDC-139089]
Unified cytotox (HepG2 cells): 42.76 µM
IC50 [1]: 0.15 µM
Is compound selective in assay? Pf FGAA active? [2]: 1 (1: YES)

c1ccc(-c2nc(Nc3nc4ccccc4[nH]3)[nH]c2-c2ccccc2)cc1 [TCMDC-139099]
Unified cytotox (HepG2 cells): 10.98 µM
IC50 [1]: 0.58 µM
Is compound selective in assay? Pf FGAA active? [2]: 1 (1: YES)

Cc1cc2nc(N=C3NC4(c5ccccn5)NC(=Nc5nc6cc(C)c(C)cc6[nH]5)NC4(c4ccccn4)N3)[nH]c2cc1C.O=C(O)C(F)(F)F (stereo not drawn) [TCMDC-139105]
Unified cytotox (HepG2 cells): 35.91 µM
IC50 [1]: 5.34 µM
Is compound selective in assay? Pf FGAA active? [2]: 0 (0: NO)

CN1CCN(c2cc3c(cc2Cl)CCN3C(=O)Nc2ccc(NC(=O)c3ccc(C(F)(F)F)cc3)cc2)CC1.Cl [TCMDC-139270]
Unified cytotox (HepG2 cells): 3.99 µM
IC50 [1]: 0.69 µM
Is compound selective in assay? Pf FGAA active? [2]: 0 (0: NO)

CC(NCCc1cccc(Cl)c1)C(O)c1ccc(OCCCCCCOc2ccc(C(O)C(C)NCCc3cccc(Cl)c3)cc2)cc1 (stereo not drawn) [TCMDC-139334]
Unified cytotox (HepG2 cells): 2.63 µM
IC50 [1]: 1 µM
Is compound selective in assay? Pf FGAA active? [2]: 0 (0: NO)

Cc1cc(N)c2cc(NC(=O)/C=C/c3ccc([N+](=O)[O-])cc3)ccc2n1 [TCMDC-139335]
Unified cytotox (HepG2 cells): 5.37 µM
IC50 [1]: 2.69 µM
Is compound selective in assay? Pf FGAA active? [2]: 0 (0: NO)

Cc1cc(N)c2cc(NC(=O)c3cc(C(F)(F)F)cc(C(F)(F)F)c3)ccc2n1.Cl [TCMDC-139377]
Unified cytotox (HepG2 cells): 2.60 µM
IC50 [1]: 0.86 µM
Is compound selective in assay? Pf FGAA active? [2]: 0 (0: NO)

O=C(Nc1cc(Cl)c(Cl)cc1NC(=O)c1cccc(-c2ccccc2)c1O)c1cccc(-c2ccccc2)c1O [TCMDC-139548]
Unified cytotox (HepG2 cells): 3.09 µM
IC50 [1]: 1.09 µM
Is compound selective in assay? Pf FGAA active? [2]: 0 (0: NO)

COc1ccc2nc(N=C3NC4(c5ccccc5)NC(=Nc5nc6ccc(OC)cc6[nH]5)NC4(c4ccccc4)N3)[nH]c2c1.O=C(O)C(F)(F)F (stereo not drawn) [TCMDC-139632]
Unified cytotox (HepG2 cells): 62.72 µM
IC50 [1]: 0.12 µM
Is compound selective in assay? Pf FGAA active? [2]: 1 (1: YES)

CC(Cc1ccc(NS(=O)(=O)c2ccc(CC(C)NCCc3cccc(Cl)c3)cc2)cc1)NCCc1cccc(Cl)c1 (stereo not drawn) [TCMDC-139797]
Unified cytotox (HepG2 cells): 4.37 µM
IC50 [1]: 1.84 µM
Is compound selective in assay? Pf FGAA active? [2]: 0 (0: NO)

CC(Cc1ccc(NC(=O)c2ccc(CC(C)NCc3ccc(Cl)cc3)cc2)cc1)NCCc1cccc(Cl)c1 (stereo not drawn) [TCMDC-139810]
Unified cytotox (HepG2 cells): 4.03 µM
IC50 [1]: 0.86 µM
Is compound selective in assay? Pf FGAA active? [2]: 0 (0: NO)

CC(Cc1ccc(NC(=O)c2ccc(CNCCCCc3ccccc3)cc2)cc1)NCCc1cccc(Cl)c1.Cl (stereo not drawn) [TCMDC-139866]
Unified cytotox (HepG2 cells): 1.97 µM
IC50 [1]: 1.12 µM
Is compound selective in assay? Pf FGAA active? [2]: 0 (0: NO)

CC(Cc1ccc(NC(=O)c2ccc(CNCCc3ccccc3)cc2)cc1)NCCc1cccc(Cl)c1.Cl (stereo not drawn) [TCMDC-139867]
Unified cytotox (HepG2 cells): 4.17 µM
IC50 [1]: 2.07 µM
Is compound selective in assay? Pf FGAA active? [2]: 0 (0: NO)

CCCCCCCN1CC[C@@H](CCCc2ccnc3ccc(OC)cc23)[C@@H](CNC)C1.O=C(O)C(=O)O [TCMDC-139875]
Unified cytotox (HepG2 cells): 5.89 µM
IC50 [1]: 0.73 µM
Is compound selective in assay? Pf FGAA active? [2]: 0 (0: NO)

CN(C)CCCNCc1ccc(-c2ccc(C(F)(F)F)cc2)cc1 [TCMDC-140011]
Unified cytotox (HepG2 cells): 4.90 µM
IC50 [1]: 1.68 µM
Is compound selective in assay? Pf FGAA active? [2]: 0 (0: NO)

COc1cccc(CCNC(C)Cc2ccc(OCCCCOc3ccccc3)cc2)c1 (stereo not drawn) [TCMDC-140020]
Unified cytotox (HepG2 cells): 1.46 µM
IC50 [1]: 1.51 µM
Is compound selective in assay? Pf FGAA active? [2]: 0 (0: NO)

Nc1ccc2[nH]cc(C3CCN(CC4CCN(C(=O)/C=C/c5ccc(Cl)c(Cl)c5)CC4)CC3)c2n1 [TCMDC-140061]
Unified cytotox (HepG2 cells): 5.89 µM
IC50 [1]: 1.77 µM
Is compound selective in assay? Pf FGAA active? [2]: 0 (0: NO)

Nc1ccc2[nH]cc(C3CCN(CCC4CCN(C(=O)/C=C/c5ccc(Cl)c(Cl)c5)CC4)CC3)c2n1 [TCMDC-140062]
Unified cytotox (HepG2 cells): 8.13 µM
IC50 [1]: 1.29 µM
Is compound selective in assay? Pf FGAA active? [2]: 0 (0: NO)

Nc1ccc2[nH]cc(C3CCN(CC4CCC(NC(=O)/C=C/c5ccc(Cl)c(Cl)c5)CC4)CC3)c2n1 (stereo not drawn) [TCMDC-140064]
Unified cytotox (HepG2 cells): 12.59 µM
IC50 [1]: 0.69 µM
Is compound selective in assay? Pf FGAA active? [2]: 1 (1: YES)

O=C(/C=C/c1ccc(Cl)c(Cl)c1)N1CCC(CN2CCC(c3c[nH]c4ccncc34)CC2)CC1 [TCMDC-140074]
Unified cytotox (HepG2 cells): 5.32 µM
IC50 [1]: 0.87 µM
Is compound selective in assay? Pf FGAA active? [2]: 0 (0: NO)

CC(=O)Nc1ccc2[nH]cc(C3CCN(CC4CCN(C(=O)/C=C/c5ccc(Cl)c(Cl)c5)CC4)CC3)c2n1 [TCMDC-140112]
Unified cytotox (HepG2 cells): 12.59 µM
IC50 [1]: 1.38 µM
Is compound selective in assay? Pf FGAA active? [2]: 0 (0: NO)

CC(=O)Nc1ccc2[nH]cc(C3CCN(CC4CCC(NC(=O)/C=C/c5ccc(Cl)c(Cl)c5)CC4)CC3)c2n1 (stereo not drawn) [TCMDC-140114]
Unified cytotox (HepG2 cells): 13.49 µM
IC50 [1]: 1.74 µM
Is compound selective in assay? Pf FGAA active? [2]: 0 (0: NO)
